Laboratory results published in the NIST ThermoML archive (doi:10.1016/j.jct.2014.05.020).
Numbers after ± are expanded uncertainties.

Test: excess molar enthalpy (molar enthalpy of mixing); xn = mol fraction of the nth substance listed
Conditions: Liquid, Flow calorimetry

CCO [ethanol] + O
excess molar enthalpy (423.2 K, 5000 kPa, x2 = 0.1473): 0.0939 ± 0.00359 kcal/mol | excess molar enthalpy (423.2 K, 5000 kPa, x2 = 0.2673): 0.159 ± 0.00335 kcal/mol | excess molar enthalpy (423.2 K, 5000 kPa, x2 = 0.4508): 0.215 ± 0.00335 kcal/mol | excess molar enthalpy (423.2 K, 5000 kPa, x2 = 0.5845): 0.218 ± 0.00335 kcal/mol | excess molar enthalpy (423.2 K, 5000 kPa, x2 = 0.6864): 0.196 ± 0.00311 kcal/mol | excess molar enthalpy (423.2 K, 5000 kPa, x2 = 0.7665): 0.164 ± 0.00287 kcal/mol | excess molar enthalpy (423.2 K, 5000 kPa, x2 = 0.8312): 0.128 ± 0.00287 kcal/mol | excess molar enthalpy (423.2 K, 5000 kPa, x2 = 0.8845): 0.0917 ± 0.00263 kcal/mol | excess molar enthalpy (423.2 K, 5000 kPa, x2 = 0.9292): 0.0569 ± 0.00263 kcal/mol | excess molar enthalpy (423.2 K, 5000 kPa, x2 = 0.9673): 0.0255 ± 0.00263 kcal/mol | excess molar enthalpy (423.2 K, 15000 kPa, x2 = 0.1466): 0.0918 ± 0.00382 kcal/mol | excess molar enthalpy (423.2 K, 15000 kPa, x2 = 0.2662): 0.156 ± 0.0043 kcal/mol | excess molar enthalpy (423.2 K, 15000 kPa, x2 = 0.4493): 0.215 ± 0.00454 kcal/mol | excess molar enthalpy (423.2 K, 15000 kPa, x2 = 0.5831): 0.218 ± 0.00454 kcal/mol | excess molar enthalpy (423.2 K, 15000 kPa, x2 = 0.6851): 0.197 ± 0.0043 kcal/mol | excess molar enthalpy (423.2 K, 15000 kPa, x2 = 0.7655): 0.166 ± 0.0043 kcal/mol | excess molar enthalpy (423.2 K, 15000 kPa, x2 = 0.8304): 0.13 ± 0.0043 kcal/mol | excess molar enthalpy (423.2 K, 15000 kPa, x2 = 0.8839): 0.0937 ± 0.00454 kcal/mol | excess molar enthalpy (423.2 K, 15000 kPa, x2 = 0.9289): 0.0584 ± 0.00454 kcal/mol | excess molar enthalpy (423.2 K, 15000 kPa, x2 = 0.9671): 0.0263 ± 0.00454 kcal/mol | excess molar enthalpy (523.2 K, 15000 kPa, x2 = 0.1466): 0.188 ± 0.00645 kcal/mol | excess molar enthalpy (523.2 K, 15000 kPa, x2 = 0.2662): 0.304 ± 0.00478 kcal/mol | excess molar enthalpy (523.2 K, 15000 kPa, x2 = 0.4493): 0.401 ± 0.00454 kcal/mol | excess molar enthalpy (523.2 K, 15000 kPa, x2 = 0.5831): 0.41 ± 0.00574 kcal/mol | excess molar enthalpy (523.2 K, 15000 kPa, x2 = 0.6851): 0.373 ± 0.00765 kcal/mol | excess molar enthalpy (523.2 K, 15000 kPa, x2 = 0.7655): 0.322 ± 0.0098 kcal/mol | excess molar enthalpy (523.2 K, 15000 kPa, x2 = 0.8304): 0.261 ± 0.012 kcal/mol | excess molar enthalpy (523.2 K, 15000 kPa, x2 = 0.8839): 0.198 ± 0.0143 kcal/mol | excess molar enthalpy (523.2 K, 15000 kPa, x2 = 0.9289): 0.131 ± 0.0172 kcal/mol | excess molar enthalpy (523.2 K, 15000 kPa, x2 = 0.9671): 0.0634 ± 0.0237 kcal/mol
